Like-named read-outs stand apart in the source and are kept apart here.
Assays:
[1] = system: patients with Huntington's disease;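 for Δ to placebo, change from baseline in UHDRS TMS Finger Tapping+Pronate-Supinate Hands: finger tapping item rates tapping with fingers of both hands, normal being 15 taps within 5 s, the combined score adds forearm pronation and supination on each side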;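 for Δ to placebo, change from baseline in UHDRS TMS Finger Taps: finger tapping item rates tapping with fingers of both hands, normal being 15 taps within 5 s, the combined score adds forearm pronation and supination on each side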
Excerpt: Finger Taps and Pronate-Supinate (P/S) hands is a combination of finger tapping (the ability to tap the fingers of both hands where 15 repetitions in 5 seconds is considered normal) with pronation/supination (the ability to rotate the forearm and hand such that the palm is down (pronation) and to rotate the forearm and hand such that the palm is up (supination) on both sides of the body).
The hand movement score is defined as the sum of UHDRS domains finger taps, pronate-supinate hands and luria (fist-hand-palm test).
An assessment of the ability to rotate the forearm and hand such that the palm is down (pronation) and to rotate the forearm and hand such that the palm is up (supination) on both sides of the body.

[2] = system: patients with Huntington's disease; remark: listed apart in the source;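 for Δ to placebo, change from baseline in UHDRS TMS Finger Tapping+Pronate-Supinate Hands: finger tapping item rates tapping with fingers of both hands, normal being 15 taps within 5 s, the combined score adds forearm pronation and supination on each side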;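 for Δ to placebo, change from baseline in UHDRS TMS Finger Taps: finger tapping item rates tapping with fingers of both hands, normal being 15 taps within 5 s, the combined score adds forearm pronation and supination on each side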
Method: These variables were analyzed in the same way as the primary efficacy endpoint except that the variable evaluation at baseline were included in the model instead of baseline UHDRS-TMS.

[3] = 67.5 mg bid, score at week 26, patients who have completed 52 weeks of treatment
[4] = 67.5 mg bid, score at week 52, patients who have completed 52 weeks of treatment
[5] = 90 mg bid, score at week 26, patients who have completed 52 weeks of treatment
[6] = 90 mg bid, score at week 52, patients who have completed 52 weeks of treatment
[7] = 112.5 mg bid, score at week 26, patients who have completed 52 weeks of treatment
[8] = 112.5 mg bid, score at week 52, patients who have completed 52 weeks of treatment
[9] = 45 mg bid, Week 26, Stage 1 BL TFC 11-13
[10] = 45 mg bid, Week 52, Stage 1 BL TFC 11-13
[11] = 45 mg bid, Week 52, all pridopidine treated patients
[12] = 67.5 mg bid, Week 26, Stage 1 BL TFC 11-13
[13] = 67.5 mg bid, Week 52, Stage 1 BL TFC 11-13
[14] = 67.5 mg bid, Week 52, all pridopidine treated patients
[15] = 90 mg bid, Week 26, Stage 1 BL TFC 11-13
[16] = 90 mg bid, Week 52, Stage 1 BL TFC 11-13
[17] = 90 mg bid, Week 52, all pridopidine treated patients
[18] = 112.5 mg bid, Week 26, Stage 1 BL TFC 11-13
[19] = 112.5 mg bid, Week 52, Stage 1 BL TFC 11-13
[20] = 112.5 mg bid, Week 52, all pridopidine treated patients

CCCN1CCC(c2cccc(S(C)(=O)=O)c2)CC1 [pridopidine, 4-[3-(methylsulfonyl)phenyl]-1-propyl-piperidine]
Δ to placebo, change from baseline in UHDRS TMS Finger Tapping+Pronate-Supinate Hands [1, 3]: 0.02
Δ to placebo, change from baseline in UHDRS TMS Finger Taps [1, 3]: −0.13
Δ to placebo, change from baseline in UHDRS TMS Finger Tapping+Pronate-Supinate Hands [1, 4]: 0.68
Δ to placebo, change from baseline in UHDRS TMS Finger Taps [1, 4]: 0.13
Δ to placebo, change from baseline in UHDRS TMS Finger Taps ([1]; 90 mg bid, Week 26, ALL): −0.07
Δ to placebo, change from baseline in UHDRS TMS Finger Taps ([1]; 90 mg bid, Week 26, BL TFC≥9, CAG Repeats <44, BL TMS 1st 3 Qs): −0.54
Δ to placebo, change from baseline in UHDRS TMS Finger Taps ([1]; 90 mg bid, Week 26, BL TFC≥9 and CAG Repeats>44): −0.52
Δ to placebo, change from baseline in UHDRS TMS Finger Tapping+Pronate-Supinate Hands [1, 5]: 0.02
Δ to placebo, change from baseline in UHDRS TMS Finger Taps [1, 5]: −0.01
Δ to placebo, change from baseline in UHDRS TMS Finger Tapping+Pronate-Supinate Hands [1, 6]: 0.48
Δ to placebo, change from baseline in UHDRS TMS Finger Taps [1, 6]: 0.08
Δ to placebo, change from baseline in UHDRS TMS Finger Taps ([1]; 112.5 mg bid, Week 26, ALL): −0.12
Δ to placebo, change from baseline in UHDRS TMS Finger Taps ([1]; 112.5 mg bid, Week 26, BL TFC≥9, CAG Repeats <44, BL TMS 1st 3 Qs): −1.05
Δ to placebo, change from baseline in UHDRS TMS Finger Taps ([1]; 112.5 mg bid, Week 26, BL TFC≥9 and CAG Repeats>44): −1.07
Δ to placebo, change from baseline in UHDRS TMS Finger Tapping+Pronate-Supinate Hands [1, 7]: −0.23
Δ to placebo, change from baseline in UHDRS TMS Finger Taps [1, 7]: −0.21
Δ to placebo, change from baseline in UHDRS TMS Finger Tapping+Pronate-Supinate Hands [1, 8]: 0.28
Δ to placebo, change from baseline in UHDRS TMS Finger Taps [1, 8]: 0.1
Δ to placebo, change from baseline in UHDRS TMS Excluding Dystonia ([2]; 45 mg bid, Week 26, ALL): 1.39
Δ to placebo, change from baseline in UHDRS TMS Involuntary Movements ([2]; 45 mg bid, Week 26, ALL): 0.89
Δ to placebo, change from baseline in UHDRS TMS Excluding Dystonia [2, 9]: −3.6
Δ to placebo, change from baseline in UHDRS TMS Involuntary Movements [2, 9]: −2.49
Δ to placebo, change from baseline in UHDRS TMS Excluding Chorea [2, 10]: −4.09
Δ to placebo, change from baseline in UHDRS TMS Involuntary Movements [2, 10]: −2.73
Δ to placebo, change from baseline in UHDRS TMS Excluding Chorea [2, 11]: 0.05
Δ to placebo, change from baseline in UHDRS TMS Involuntary Movements [2, 11]: 0.02
Δ to placebo, change from baseline in UHDRS TMS Excluding Dystonia ([2]; 67.5 mg bid, Week 26, ALL): 1.97
Δ to placebo, change from baseline in UHDRS TMS Involuntary Movements ([2]; 67.5 mg bid, Week 26, ALL): 0.48
Δ to placebo, change from baseline in UHDRS TMS Excluding Dystonia [2, 12]: −2.2
Δ to placebo, change from baseline in UHDRS TMS Involuntary Movements [2, 12]: −3.07
Δ to placebo, change from baseline in UHDRS TMS Excluding Chorea [2, 13]: −0.18
Δ to placebo, change from baseline in UHDRS TMS Involuntary Movements [2, 13]: −0.2
Δ to placebo, change from baseline in UHDRS TMS Excluding Chorea [2, 14]: 1.31
Δ to placebo, change from baseline in UHDRS TMS Involuntary Movements [2, 14]: 0.8
Δ to placebo, change from baseline in UHDRS TMS Excluding Dystonia ([2]; 90 mg bid, Week 26, ALL): 1.2
Δ to placebo, change from baseline in UHDRS TMS Involuntary Movements ([2]; 90 mg bid, Week 26, ALL): 0.01
Δ to placebo, change from baseline in UHDRS TMS Excluding Dystonia [2, 15]: −4.35
Δ to placebo, change from baseline in UHDRS TMS Involuntary Movements [2, 15]: −4
Δ to placebo, change from baseline in UHDRS TMS Excluding Chorea [2, 16]: −4.92
Δ to placebo, change from baseline in UHDRS TMS Involuntary Movements [2, 16]: −3.8
Δ to placebo, change from baseline in UHDRS TMS Excluding Chorea [2, 17]: 1.67
Δ to placebo, change from baseline in UHDRS TMS Involuntary Movements [2, 17]: −0.26
Δ to placebo, change from baseline in UHDRS TMS Excluding Dystonia ([2]; 112.5 mg bid, Week 26, ALL): 2.4
Δ to placebo, change from baseline in UHDRS TMS Involuntary Movements ([2]; 112.5 mg bid, Week 26, ALL): 0.76
Δ to placebo, change from baseline in UHDRS TMS Excluding Dystonia [2, 18]: −4.31
Δ to placebo, change from baseline in UHDRS TMS Involuntary Movements [2, 18]: −1.64
Δ to placebo, change from baseline in UHDRS TMS Excluding Chorea [2, 19]: −1.59
Δ to placebo, change from baseline in UHDRS TMS Involuntary Movements [2, 19]: 0.8
Δ to placebo, change from baseline in UHDRS TMS Excluding Chorea [2, 20]: 1.94
Δ to placebo, change from baseline in UHDRS TMS Involuntary Movements [2, 20]: 0.57

Reference: patent publication US12564582B2 (Prilenia Neurotherapeutics Ltd., priority 2016, dated 2026)
